How the values were obtained:
[1] = system: HIV-1 from the patient sample; experiment: PHENOSENSE HIV phenotypic susceptibility assay on patient plasma samples (IC50 fold change vs NL4-3 reference); assay type: cell-based; details: for fold change in IC50: patient sample with L10I, I13V, E35D, M36I, R41K, I50V, L63P, A71V, N88N/S, L90M in HIV protease, vs NL4-3 reference
Protocol: In a preferred embodiment, the phenotypic analysis is performed using PHENOSENSE™ (ViroLogic Inc., South San Francisco, Calif.). See Petropoulos et al., 2000, Antimicrob. Agents Chemother. 44:920-928; U.S. Pat. Nos. 5,837,464 and 6,242,187. PHENOSENSE™ is a phenotypic assay that achieves the benefits of phenotypic testing and overcomes the drawbacks of previous assays. Because the assay has been automated, PHENOSENSE™ offers higher throughput under controlled conditions. The result is an assay that accurately defines the susceptibility profile of a patient's HIV isolates to all currently available antiretroviral drugs, and delivers results directly to the physician within about 10 to about 15 days of sample receipt. PHENOSENSE™ is accurate and can obtain results with only one round of viral replication, thereby avoiding selection of subpopulations of virus. The results are quantitative, measuring varying degrees of drug susceptibility, and sensitive—the test can be performed on blood specimens with a viral load of about 500 copies/mL and can detect minority populations of some drug-resistant virus at concentrations of 10% or less of total viral population. Furthermore, the results are reproducible and can vary by less than about 1.4-2.5 fold, depending on the drug, in about 95% of the assays performed.
PHENOSENSE™ can be used with nucleic acids from amplified viral gene sequences. As discussed in Section 5.4.1, the sample containing the virus may be a sample from a human or an animal infected with the virus or a sample from a culture of viral cells. In one embodiment, the viral sample comprises a genetically modified laboratory strain.
(§1) A resistance test vector (“RTV”) can then be constructed by incorporating the amplified viral gene sequences into a replication defective viral vector by using any method known in the art of incorporating gene sequences into a vector. In one embodiment, restrictions enzymes and conventional cloning methods are used. See Sambrook et al., 2001, Molecular Cloning: A Laboratory Manual, Cold Spring Harbor Laboratory, 3rd ed., NY; and Ausubel et al., 1989, Current Protocols in Molecular Biology, Greene Publishing Associates and Wiley Interscience, NY. In a preferred embodiment, ApaI and PinAI restriction enzymes are used. Preferably, the replication defective viral vector is the indicator gene viral vector (“IGVV”). In a preferred embodiment, the viral vector contains a means for detecting replication of the RTV. Preferably, the viral vector contains a luciferase expression cassette.
(§2) The assay can be performed by first co-transfecting host cells with RTV DNA and a plasmid that expresses the envelope proteins of another retrovirus, for example, amphotropic murine leukemia virus (MLV). Following transfection, virus particles can be harvested and used to infect fresh target cells. The completion of a single round of viral replication can be detected by the means for detecting replication contained in the vector. In a preferred embodiment, the completion of a single round of viral replication results in the production of luciferase. Serial concentrations of anti-viral agents can be added at either the transfection step or the infection step.
(§3) Susceptibility to the anti-viral agent can be measured by comparing the replication of the vector in the presence and absence of the anti-viral agent. For example, susceptibility to the anti-viral agent can be measured by comparing the luciferase activity in the presence and absence of the anti-viral agent. Susceptible viruses would produce low levels of luciferase activity in the presence of antiviral agents, whereas viruses with reduced susceptibility would produce higher levels of luciferase activity.
The phenotypic assay was conducted using the PHENOSENSE™ (Virologic, South San Francisco, Calif.) HIV assay (Petropoulos et al., 2000, Antimicrob. Agents Chemother. 44:920-928; U.S. Pat. Nos. 5,837,464 and 6,242,187). […]

[2] = system: HIV-1 clones containing I50V; experiment: PhenoSense assay on protease clones (I50V; I50V+L90M; I50V+N88S) isolated from resistance test vector pools of one patient sample; assay type: cell-based; details: for mean fold change (FC), reduction in susceptibility: clones with I50V only, or I50V plus L90M
From the text: Drug names are abbreviated as follows: APV, amprenavir; IDV, indinavir; LPV, lopinavir; NFV, nelfinavir; RTV, ritonavir; SQV, saquinavir; ATV, atazanavir (BMS 232632).
as §1, §2, §3
Clones from the population were selected so as to isolate some clones with the N88S mutation and some without it. Resistance test vector pools constructed from the original plasma sample (Petropoulos et al., 2000, Antimicrob Agents Chemother 44:920-8) were transformed into E. Coli, and plasmid DNA from individual colonies was screened in the PhenoSense® assay for […].

HIV = details: patients using amprenavir as their first PI; as low as; cited from earlier work
[3] = I50V+N88S clones vs I50V clones

SMILES	fold change in IC50 [1] [fold]	mean fold change (FC), reduction in susceptibility [2]	other results
CC(C)CN(C[C@@H](O)[C@H](Cc1ccccc1)NC(=O)O[C@H]1CCOC1)S(=O)(=O)c1ccc(N)cc1 [amprenavir]	4.1	13-17 FC	99th percentile for the distribution of FC in genotypically wild-type viruses ([1]; genotypically wild-type viruses, PhenoSense Assay): 2.1 fold; fold change for a virus containing I50V, but not N88S ([2]; FIG. 7 bar 1 for APV): about 17 fold; fold change when the virus contained N88S in addition to I50V ([2]; FIG. 7 bar 2 for APV, wild type level): 1.2 FC; factor by which susceptibility was increased when N88S was present in combination with I50V [2, 3]: 14.5; reductions in susceptibility in patients who experienced viral load rebound (HIV): 2-3 fold
COC(=O)N[C@H](C(=O)N[C@@H](Cc1ccccc1)[C@@H](O)CN(Cc1ccc(-c2ccccn2)cc1)NC(=O)[C@@H](NC(=O)OC)C(C)(C)C)C(C)(C)C [atazanavir]			fold increase in IC50 in the presence of N88S (susceptibility decreased) [2, 3]: 2.3 fold
CC(C)(C)NC(=O)[C@@H]1CN(Cc2cccnc2)CCN1C[C@@H](O)C[C@@H](Cc1ccccc1)C(=O)N[C@H]1c2ccccc2C[C@H]1O [indinavir]	1.4		
Cc1cccc(C)c1OCC(=O)N[C@@H](Cc1ccccc1)[C@@H](O)C[C@H](Cc1ccccc1)NC(=O)[C@H](C(C)C)N1CCCNC1=O [lopinavir]	3.3	7-9 FC	fold decrease in IC50 in the presence of N88S (susceptibility increased) [2, 3]: 1.7 fold
Cc1c(O)cccc1C(=O)N[C@@H](CSc1ccccc1)[C@H](O)CN1C[C@H]2CCCC[C@H]2C[C@H]1C(=O)NC(C)(C)C [nelfinavir]	5.3	7-10 FC	fold increase in IC50 in the presence of N88S (susceptibility decreased) [2, 3]: 2.1 fold
CC(C)c1nc(CN(C)C(=O)N[C@H](C(=O)N[C@@H](Cc2ccccc2)C[C@H](O)[C@H](Cc2ccccc2)NC(=O)OCc2cncs2)C(C)C)cs1 [ritonavir]	11	12-20 FC	fold decrease in IC50 in the presence of N88S (susceptibility increased) [2, 3]: 1.4 fold
CC(C)(C)NC(=O)[C@@H]1C[C@@H]2CCCC[C@@H]2CN1C[C@@H](O)[C@H](Cc1ccccc1)NC(=O)[C@H](CC(N)=O)NC(=O)c1ccc2ccccc2n1 [saquinavir]	3.6		increase in FC with L90M ([2]; I50V plus L90M clones vs I50V only clones): 1.8 fold
